Test system: phosphate uptake by rabbit intestinal Brush Border Membrane Vesicles (BBMV)
Assay: 33PO4 uptake in rabbit intestinal BBMV (HTS), phosphate transporter inhibition in vitro
Format: biochemical
Settings: for % Inhib. At 100 μM: Table 3, 100 μM compound; for IC50: Table 4, phosphate uptake, read-out: IC50
Summary of the method: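 BBMV from duodenal mucosa of male New Zealand White rabbits, diluted to about 0.5-2.0 mg/mL protein. Uptake buffers carried 33PO4 at 200,000 CPM/19 μL. Controls: Na uptake buffer (max), plus 100 μM KH2PO4 pH 7.4 (mid), K uptake buffer (min).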

Structure (SMILES)	IC50 [µM]	% Inhib. At 100 μM [%]
Cc1ccc(CNS(=O)(=O)c2ccc(OC(F)(F)F)cc2)cc1 [Compound 163]		26
O=[N+]([O-])c1ccc(S(=O)(=O)n2cnc3ccccc32)cc1 [Compound 164]		26
COc1ccc2c(c1)C(=O)CCN2S(=O)(=O)c1ccc(C)cc1 [Compound 165]		25
NC(=O)c1ccccc1NS(=O)(=O)c1ccc(OC(F)(F)F)cc1 [Compound 166]		22
CSc1ccc(N(c2ccc(OC(F)(F)F)cc2)S(=O)(=O)c2ccc(OC(F)(F)F)cc2)cc1 [Compound 167]		21
O=S(=O)(Nc1ccccn1)c1ccc(OC(F)(F)F)cc1 [Compound 168]		16
O=C(Nc1ccc(Br)cc1C(F)(F)F)c1cc(Br)ccc1NS(=O)(=O)c1ccc(OC(F)(F)F)cc1 [Compound 169]		106
COc1cc([N+](=O)[O-])ccc1NC(=O)c1cc(Br)ccc1NS(=O)(=O)c1ccc(OC(F)(F)F)cc1 [Compound 170]		103
O=C(Nc1ccc(I)cc1F)c1cc(Br)ccc1NS(=O)(=O)c1ccc(OC(F)(F)F)cc1 [Compound 171]		100
O=C(NCc1cccc(C(F)(F)F)c1)c1cc(Br)ccc1NS(=O)(=O)c1ccc(OC(F)(F)F)cc1 [Compound 172]		96
O=C(Nc1ccccc1Cl)c1cc(Br)ccc1NS(=O)(=O)c1ccc(Cl)cc1 [Compound 173]		95
O=C(Nc1ccccn1)c1cc(Br)ccc1NS(=O)(=O)c1ccc(OC(F)(F)F)cc1 [Compound 174]		84
COc1ccc(NC(=O)c2cc(Br)ccc2NS(=O)(=O)c2ccc(OC(F)(F)F)cc2)c([N+](=O)[O-])c1 [Compound 175]		78
O=S(=O)(Nc1ccccc1NS(=O)(=O)c1cc(C(F)(F)F)cc(C(F)(F)F)c1)c1cc(C(F)(F)F)cc(C(F)(F)F)c1 [Compound 176]		36
O=C(Nc1ccc(OC(F)(F)F)cc1)Nc1ccc(Br)cc1P(=O)(O)O [Compound 177]	< 50	
O=C(Nc1cccc(C(F)(F)F)c1)Nc1ccc(Br)cc1P(=O)(O)O [Compound 178]	< 50	
O=C(Nc1ccc(Cl)c(Cl)c1)Nc1ccc(Br)cc1P(=O)(O)O [Compound 179]	< 50	
O=C(Nc1cc(Cl)cc(Cl)c1)Nc1ccc(Br)cc1P(=O)(O)O [Compound 180]	51 to 100	
O=C(Nc1cc(Cl)cc(C(F)(F)F)c1)Nc1ccc(Br)cc1P(=O)(O)O [Compound 181]	51 to 100	
O=C(Nc1cc(C(F)(F)F)cc(C(F)(F)F)c1)Nc1ccc(Br)cc1P(=O)(O)O [Compound 182]	51 to 100	
O=C(Nc1ccc(Br)cc1P(=O)(O)O)Nc1cccc2ccccc12 [Compound 183]	51 to 100	

Continued, in another order:

IC50 [µM]	Structure (SMILES)	% Inhib. At 100 μM [%]
101 to 500	O=C(Nc1cc(F)cc(C(F)(F)F)c1)Nc1ccc(Br)cc1P(=O)(O)O [Compound 184]	
101 to 500	O=C(Nc1ccc(Cl)c(C(F)(F)F)c1)Nc1ccc(Br)cc1P(=O)(O)O [Compound 185]	
101 to 500	O=C(Nc1ccccc1-c1ccccc1)Nc1ccc(Br)cc1P(=O)(O)O [Compound 186]	
101 to 500	O=C(Nc1ccc(Br)cc1P(=O)(O)O)Nc1cccc(Cl)c1Cl [Compound 187]	
101 to 500	O=C(Nc1ccc(F)c(C(F)(F)F)c1)Nc1ccc(Br)cc1P(=O)(O)O [Compound 188]	
101 to 500	O=C(Nc1cc(C(F)(F)F)ccc1F)Nc1ccc(Br)cc1P(=O)(O)O [Compound 189]	
101 to 500	Cc1ccc(NC(=O)Nc2ccc(Br)cc2P(=O)(O)O)cc1[N+](=O)[O-] [Compound 190]	
101 to 500	CC(C)c1cccc(C(C)C)c1NC(=O)Nc1ccc(Br)cc1P(=O)(O)O [Compound 191]	
101 to 500	O=C(Nc1cccc(C(F)(F)F)c1)Nc1ccc(Br)cc1P(=O)(O)O [Compound 192]	
101 to 500	O=C(Nc1cc(Cl)c(Cl)cc1Cl)Nc1ccc(Br)cc1P(=O)(O)O [Compound 193]	
101 to 500	O=C(Nc1ccc(F)c([N+](=O)[O-])c1)Nc1ccc(Br)cc1P(=O)(O)O [Compound 194]	
501 to 1000	O=C(Nc1cccc(Cl)c1)Nc1ccc(Br)cc1P(=O)(O)O [Compound 195]	
501 to 1000	Cc1cccc(C)c1NC(=O)Nc1ccc(Br)cc1P(=O)(O)O [Compound 196]	
501 to 1000	N#Cc1cccc(NC(=O)Nc2ccc(Br)cc2P(=O)(O)O)c1 [Compound 197]	
501 to 1000	O=C(Nc1ccc(Br)cc1P(=O)(O)O)Nc1cccc(C(F)(F)F)c1Cl [Compound 198]	
501 to 1000	CC(=O)c1cccc(NC(=O)Nc2ccc(Br)cc2P(=O)(O)O)c1 [Compound 199]	
501 to 1000	O=C(Nc1ccccc1F)Nc1ccc(Br)cc1P(=O)(O)O [Compound 200]	
501 to 1000	O=C(NCc1ccccc1)Nc1ccc(Br)cc1P(=O)(O)O [Compound 201]	
501 to 1000	O=C(Nc1ccc(C(F)(F)F)cc1)Nc1ccc(Br)cc1P(=O)(O)O [Compound 202]	
501 to 1000	COc1cccc(NC(=O)Nc2ccc(Br)cc2P(=O)(O)O)c1 [Compound 203]	
1000 to 1500	O=C(Nc1ccc(Br)cc1P(=O)(O)O)Nc1c(F)cccc1F [Compound 204]	
